Data: PubChem BioAssay AID1963872 (Molecular Pharmacology Branch, DTP, NCI, 2024)

Tested on: KRAS patient-derived spheroids with HUVEC/MSC, viability
Test: Anticancer human tumor 519858-162-T-J1-PDC patient-derived colon adenocarcinoma cell line growth inhibition [KRAS2]
Settings: for IC50: curve of first compound; for viability, T/C: stronger effect = lower value
From the text: Multicellular complex tumor spheroid response to RAS pathway inhibitors in combination with a targeted agents in patient-derived cell lines with oncogenic KRAS variants from multiple cancer types
A high-throughput screen of multi-cell type tumor spheroids was designed to identify active combinations of targeted small molecules and KRAS pathway inhibitors. Complex spheroids include a stromal component modeled by human endothelial cells (HUVEC) and fibroblasts modeled by human mesenchymal stem cells (MSCs). The concentration ranges selected for each drug and investigational agent were based upon clinically achievable concentrations if the clinical Cmax of the agent was known.
Compounds. The drugs and investigational agents: BI-3406 (NSC825286), BAY-293 (NSC824723), batoprotafib (TNO155; NSC825523), sotorasib (AMG 510; NSC818433), MRTX1257 (NSC819558), elimusertib (BAY 1895344; NSC800525), molibresib (GSK525762; NSC774829), temuterkib (LY3214996; NSC803410), venetoclax (NSC766270), alisertib (NSC759677), olaparib (NSC753686), talazoparib (NSC767125), erdafitinib (NSC781556), ipatasertib (NSC767898), cabozantinib (NSC761068), nintedanib (NSC756659), abemaciclib (NSC768073), docetaxel (NSC628503), trametinib (NSC758246), and sapanisertib (NSC764658) were obtained from the National Cancer Institute (NCI) Developmental Therapeutics Program Chemical Repository. The FDA-approved anticancer drug set is available from the Developmental Therapeutics Program. […] The stock solutions were prepared in dimethyl sulfoxide (DMSO, Sigma-Aldrich, St. Louis, MO, cat. D2650) at 800-fold the tested concentration and stored at -70 degrees C prior to their use. All drugs and investigational agents were tested over a range starting from a high concentration at or near the clinical Cmax and decreasing in half-log increments. If the clinical Cmax for an agent had not been determined, the highest concentration tested was 10 microM.
Cell Culture. All cells were maintained in an incubator at 37 degrees C and 5% CO2 with 95% humidity. The PDC lines were cultured according to standard operating procedures established by the NCI PDMR (https://pdmr.cancer.gov/sops/default.htm). Briefly, all PDCs were thawed and cultured in Matrigel-coated flasks prepared with a working solution of 1X Ham's F-12 nutrient mix, without supplementation (Invitrogen, Waltham, MA, cat. 11765054), 100 U/mL penicillin-streptomycin (Invitrogen, cat. 15140122), and 2.5% Matrigel (Corning Inc., Corning, NY, cat. 354248) for the first three passages. All PDCs were cultured in complete DMEM/F-12 media containing advanced DMEM/F-12 (Invitrogen, cat. 12634028), 4.9% defined fetal bovine serum, heat inactivated (HyClone Laboratories Inc., Logan, UT, cat. SH30070.03HI), 389 ng/mL hydrocortisone (Sigma-Aldrich, cat. H4001), 9.7 ng/mL human EGF recombinant protein (Invitrogen, cat. PHG0313), 23.4 microg/mL adenine (Sigma-Aldrich, cat. A2786), 97.3 U/mL penicillin-streptomycin (Invitrogen, cat. 15140122), 1.9 mM L-glutamine (Invitrogen, cat. 25030081), and 9.7 microM Y-27632 dihydrochloride (Tocris Bioscience, Bristol, United Kingdom, cat. 1254). The PDCs were cultured in complete DMEM/F12 media without 9.7 microM Y-27632 dihydrochloride for at least two passages prior to the screen. The established cell line HOP-62 was cultured in RPMI 1640 medium, HEPES (Invitrogen, cat. 22400105) with 10% defined fetal bovine serum (HyClone Laboratories Inc., cat. SH30070.03) and 2 mM L-glutamine (Invitrogen, cat. 25030081). The pooled donor HUVEC were cultured in endothelial cell growth medium 2 (PromoCell, Heidelberg, Germany, cat. C-22011) and the hMSC were cultured in mesenchymal stem cell growth medium 2 (PromoCell, cat. C-28009). For all experiments, HUVEC and hMSC were used at passages </=5, while the malignant cell lines were used at passages </=15. […]

[1] = second compound 0.1 µM, first compound 0.0316 µM
[2] = second compound 0.1 µM, first compound 0.1 µM
[3] = second compound 0.316 µM, first compound 0.0316 µM
[4] = second compound 0.316 µM, first compound 0.1 µM
[5] = second compound 1 µM, first compound 0.0316 µM
[6] = second compound 1 µM, first compound 0.1 µM
[7] = second compound 3.16 µM, first compound 0.0316 µM
[8] = second compound 3.16 µM, first compound 0.1 µM
[9] = second compound 10 µM, first compound 0.0316 µM
[10] = second compound 10 µM, first compound 0.1 µM
[11] = second compound 0.1 µM, first compound 0.316 µM
[12] = second compound 0.1 µM, first compound 1 µM
[13] = second compound 0.1 µM, first compound 3.16 µM
[14] = second compound 0.1 µM, first compound 10 µM
[15] = second compound 0.316 µM, first compound 0.316 µM
[16] = second compound 0.316 µM, first compound 1 µM
[17] = second compound 0.316 µM, first compound 3.16 µM
[18] = second compound 0.316 µM, first compound 10 µM
[19] = second compound 1 µM, first compound 0.316 µM
[20] = second compound 1 µM, first compound 1 µM
[21] = second compound 1 µM, first compound 3.16 µM
[22] = second compound 1 µM, first compound 10 µM
[23] = second compound 3.16 µM, first compound 0.316 µM
[24] = second compound 3.16 µM, first compound 1 µM
[25] = second compound 3.16 µM, first compound 3.16 µM
[26] = second compound 3.16 µM, first compound 10 µM
[27] = second compound 10 µM, first compound 0.316 µM
[28] = second compound 10 µM, first compound 1 µM
[29] = second compound 10 µM, first compound 3.16 µM
[30] = second compound 10 µM, first compound 10 µM
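Further: compound exposure lasted seven days before readout.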
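Wherever viability, T/C is given: 100% = DMSO vehicle control viability.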

| Compound | IC50 (second compound 0.1 µM) | IC50 (second compound 0.316 µM) | IC50 (second compound 1 µM) | IC50 (second compound 3.16 µM) | IC50 (second compound 10 µM) | viability, T/C [1] | viability, T/C [2] | viability, T/C [3] | viability, T/C [4] | viability, T/C [5] | viability, T/C [6] | viability, T/C [7] | viability, T/C [8] | viability, T/C [9] | viability, T/C [10] | viability, T/C [11] | viability, T/C [12] | viability, T/C [13] | viability, T/C [14] | viability, T/C [15] | also measured |
| --- | --- | --- | --- | --- | --- | --- | --- | --- | --- | --- | --- | --- | --- | --- | --- | --- | --- | --- | --- | --- | --- |
| CN(C)C/C=C/C(=O)Nc1cc2c(Nc3ccc(F)c(Cl)c3)ncnc2cc1O[C@H]1CCOC1 + C=CC(=O)N1CCN(c2nc(=O)n(-c3c(C)ccnc3C(C)C)c3nc(-c4c(O)cccc4F)c(F)cc23)C(C)C1 | > 0.1 µM | > 0.1 µM | > 0.1 µM | > 0.1 µM | > 0.1 µM | 87.4% | 84.8% | 93.9% | 60.2% | 61.9% | 80.2% | 61.5% | 81.7% | 80.9% | 73.6% | – | – | – | – | – | viability, T/C (second compound 0.1 µM, first compound 0.000316 µM): 86.2%; viability, T/C (second compound 0.1 µM, first compound 0.001 µM): 95%; viability, T/C (second compound 0.1 µM, first compound 0.00316 µM): 86.8%; viability, T/C (second compound 0.1 µM, first compound 0.01 µM): 80%; viability, T/C (second compound 0.316 µM, first compound 0.000316 µM): 85.6%; viability, T/C (second compound 0.316 µM, first compound 0.001 µM): 103%; viability, T/C (second compound 0.316 µM, first compound 0.00316 µM): 75.2%; viability, T/C (second compound 0.316 µM, first compound 0.01 µM): 86%; viability, T/C (second compound 1 µM, first compound 0.000316 µM): 110%; viability, T/C (second compound 1 µM, first compound 0.001 µM): 77.8%; viability, T/C (second compound 1 µM, first compound 0.00316 µM): 71%; viability, T/C (second compound 1 µM, first compound 0.01 µM): 83.4%; viability, T/C (second compound 3.16 µM, first compound 0.000316 µM): 61.4%; viability, T/C (second compound 3.16 µM, first compound 0.001 µM): 69.7%; viability, T/C (second compound 3.16 µM, first compound 0.00316 µM): 90.5%; viability, T/C (second compound 3.16 µM, first compound 0.01 µM): 61.1%; viability, T/C (second compound 10 µM, first compound 0.000316 µM): 74.8%; viability, T/C (second compound 10 µM, first compound 0.001 µM): 92.6%; viability, T/C (second compound 10 µM, first compound 0.00316 µM): 79.1%; viability, T/C (second compound 10 µM, first compound 0.01 µM): 67.5% |
| COC(=O)c1ccc2c(C(=Nc3ccc(N(C)C(=O)CN4CCN(C)CC4)cc3)c3ccccc3)c(O)[nH]c2c1 + C=CC(=O)N1CCN(c2nc(=O)n(-c3c(C)ccnc3C(C)C)c3nc(-c4c(O)cccc4F)c(F)cc23)C(C)C1 | > 10 µM | > 10 µM | > 10 µM | > 10 µM | > 10 µM | 121% | 86.2% | 106% | 83.8% | 89.4% | 67.9% | 96.9% | 75.1% | 72.9% | 74.3% | 85.9% | 101% | 102% | 91.1% | 77.8% | viability, T/C [16]: 76.2%; viability, T/C [17]: 89.4%; viability, T/C [18]: 94.1%; viability, T/C [19]: 111%; viability, T/C [20]: 90.7%; viability, T/C [21]: 76%; viability, T/C [22]: 60.1%; viability, T/C [23]: 82.8%; viability, T/C [24]: 66.3%; viability, T/C [25]: 70.7%; viability, T/C [26]: 84.2%; viability, T/C [27]: 60.1%; viability, T/C [28]: 80.4%; viability, T/C [29]: 101%; viability, T/C [30]: 75.3% |
| O=C(c1cc(Cc2n[nH]c(=O)c3ccccc23)ccc1F)N1CCN(C(=O)C2CC2)CC1 + C=CC(=O)N1CCN(c2nc(=O)n(-c3c(C)ccnc3C(C)C)c3nc(-c4c(O)cccc4F)c(F)cc23)C(C)C1 | > 10 µM | > 10 µM | > 10 µM | > 10 µM | > 10 µM | 71.4% | 111% | 89.2% | 91.2% | 73.9% | 98.4% | 88.8% | 92.5% | 106% | 106% | 96.3% | 120% | 123% | 110% | 95.1% | viability, T/C [16]: 97.4%; viability, T/C [17]: 91.9%; viability, T/C [18]: 111%; viability, T/C [19]: 80.8%; viability, T/C [20]: 100%; viability, T/C [21]: 89.3%; viability, T/C [22]: 108%; viability, T/C [23]: 84%; viability, T/C [24]: 95%; viability, T/C [25]: 96.8%; viability, T/C [26]: 120%; viability, T/C [27]: 72.5%; viability, T/C [28]: 83.8%; viability, T/C [29]: 86.1%; viability, T/C [30]: 72.7% |
